Assay results as given in patent publication US5672707A (priority 1991, dated 1997).
Read-outs that look alike come from different tables or passages of the source.

How the values were obtained:
rats = test: Passive avoidance test in normal rats, 50% acquisition; assay type: in vivo; conditions: for change in vivo at 0.1 mg/kg: Rattus norvegicus, ip, 20 min, read-out: Increase of the number of correct trails (% to control). Passive avoidance test (rats); for change in vivo at 0.1 mg/kg / Increase of the number of correct trails (% to control). Passive avoidance test (rats): rats, 0.1 mg/kg i.p. 20 min before training, piracetam 250 mg/kg 60 min before training
Description: (§1) Psychoneurotropic activity of the declared compounds and their influence on learning and memory were observed using unbred male (18-20 g) mice and 180-200 g) rats, held at standard conditions (room temperature 21°-22° C., 12-hours lighting schedule, food and water ad libitum).
The influence of drugs on reflex conditioning in rats was studied by the passive avoidance test in conditions of 50% acquisition. The effect of the compound was estimated by the increase of the relative number of learned animals with respect to that of control group. […] The other reference drug--noothropic agent piracetam--was given in the dose 250 mg/kg 60 min before training. Amnestic syndrome was stimulated by 20 days application of Sc at the daily dose of 1 mg/kg intraperitoneally. […] The passive avoidance test was performed within 24 hours after the last application of test preparations.

[1] = molecular target: T1, Acetylcholinesterase, enzyme from human erythrocytes (Homo sapiens, UniProt P22303); test: Acetylcholinesterase inhibition, spectrophotometric technique of Ellman; assay type: biochemical; conditions: Acetylcholinesterase inhibition IC50 (M), enzyme from human erythrocytes; Table 5
T1 construct: on the enzyme from human erythrocytes; from tissue; host or cells: human erythrocytes
Description: Acetylcholinesterase inhibition under the action of preparations was assessed by the spectrophotometric technique of Ellman on the enzyme from human erythrocytes.

in vivo = conditions: for LD50: in vivo, ip
Description: as §1
Acute toxicity was studied by the method of Kerber with intra peritoneal drug injection.

mice [2] = test: Psychotropic activity test: motor activity; assay type: in vivo; conditions: intraperitoneally, dose 1/20 of LD
mice [3] = test: Psychotropic activity test: arecoline induced hyperkynesis; assay type: in vivo; conditions: intraperitoneally, dose 1/20 of LD
rat adipocytes = test: Lipid composition of adipocytes after incubation with compounds; assay type: cell-based; conditions: cells; Table 11
Description: Lipid regulative activity of the declared compounds--derivatives of 9-amino acridine--were evaluated in vitro[…] using rat adipocytes. Adipocytes were separated from adipose tissue of testis appendages of adult male rats. Lipid composition analysis was performed by the method of thin-layer chromatography.
Quantitative analysis of phospholipids (PL), mono- and diacylglycerides (MDG), triacylglycerides (TG), free fatty acids (FFA), free cholesterol (FCL), and methyl esters of fatty acids (MEFA) was performed by the method of spectrophotometry.

[4] = intraperitoneal injection, Table 5, read-out: LD50 (mg/kg) by Kerber
[5] = intraperitoneal injection, Table 5

T1 sequence (P22303-2 with tags, fused parts or gaps limits assumed): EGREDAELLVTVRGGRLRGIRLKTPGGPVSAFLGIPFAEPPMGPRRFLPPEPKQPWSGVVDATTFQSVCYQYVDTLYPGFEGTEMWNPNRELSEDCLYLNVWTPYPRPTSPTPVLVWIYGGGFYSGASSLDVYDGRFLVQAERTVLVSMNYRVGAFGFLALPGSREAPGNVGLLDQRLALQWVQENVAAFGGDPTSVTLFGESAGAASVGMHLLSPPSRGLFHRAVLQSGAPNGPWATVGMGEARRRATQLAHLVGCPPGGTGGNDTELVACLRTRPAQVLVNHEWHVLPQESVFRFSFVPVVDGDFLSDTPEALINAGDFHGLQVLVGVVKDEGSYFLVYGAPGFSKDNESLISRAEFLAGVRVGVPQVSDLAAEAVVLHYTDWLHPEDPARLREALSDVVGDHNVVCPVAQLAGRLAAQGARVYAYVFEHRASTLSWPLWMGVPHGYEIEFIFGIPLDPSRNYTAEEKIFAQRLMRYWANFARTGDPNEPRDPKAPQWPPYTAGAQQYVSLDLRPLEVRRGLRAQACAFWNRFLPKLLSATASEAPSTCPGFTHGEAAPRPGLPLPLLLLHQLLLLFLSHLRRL

SMILES	change in vivo at 0.1 mg/kg (rats) [%]	IC50 [1] [M]	LD50 (in vivo; [4]) [mg/kg]	Motor activity increment (% to control) (mice [2])	Increase of duration of arecoline induced hyperkynesis (% to control) (mice [3])	Performance of normal rats in passive avoidance test (rats)	Increase of the number of correct trails (% to control). Passive avoidance test (rats) (rats)	LD50 (mg/kg) by Kerber (in vivo; [5]) [mg/kg]	LD50 (in vivo; LD50 (mg/kg) by Kerber) [mg/kg]	FFA/TG in adipocytes (rat adipocytes)	PL/CL in adipocytes (rat adipocytes)	PL/TG in adipocytes (rat adipocytes)
CC1(C)CC(=O)c2c(nc3ccc(Br)cc3c2N)C1 [IVd]	0	5e-05	> 500	15 % to control	20 % to control	–	–	–	–	–	–	–
Cc1ccc(C)c2c(N)c3c(nc12)CC(C)(C)CC3=O [IVf]	0	1.3e-05	40 ± 1.2	0 % to control	0 % to control	statistically significantly improved performance of normal rats	–	–	–	–	–	–
Cc1cc(C)c2nc3c(c(N)c2c1)C(=O)CC(C)(C)C3 [IVh]	0	3e-05	> 500	0 % to control	20 % to control	–	–	–	–	–	–	–
Cc1ccc2nc3c(c(N)c2c1)C(=O)CC(C)(C)C3 [IVj]	0	3e-05	63.6 ± 8.7	0 % to control	30 % to control	–	–	–	–	–	–	–
Cc1cccc2c(N)c3c(nc12)CC(C)(C)CC3=O [IVl]	0	6.3e-07	617 ± 23.7	57 % to control	0 % to control	–	–	–	–	–	–	–
CC1(C)C=Cc2c(nc3ccccc3c2NCc2ccccc2)C1 [VIIf]	–	–	–	0 % to control	0 % to control	–	0 % to control	125.0 ± 15.5	–	–	–	–
CC1(C)C=Cc2c(nc3ccccc3c2NCc2ccccc2)C1 [VIIg]	–	–	–	23 % to control	0 % to control	–	0 % to control	200.0 ± 21.9	–	–	–	–
CC1(C)C=Cc2c(nc3ccccc3c2NCc2ccccc2)C1 [VIIh]	–	–	–	13 % to control	28 % to control	–	20 % to control	116.7 ± 10.9	–	–	–	–
CC1(C)C=Cc2c(nc3ccccc3c2NCc2ccccc2)C1 [VIIm]	–	–	–	15 % to control	15 % to control	–	25 % to control	112.5 ± 10.9	–	–	–	–
CC1(C)C=Cc2c(nc3ccccc3c2NCc2ccccc2)C1 [VIIn]	–	–	–	11 % to control	46 % to control	–	40 % to control	125.0 ± 10.9	–	–	–	–
CC1(C)C=Cc2c(nc3ccccc3c2NCc2ccccc2)C1 [VIIo]	–	–	–	16 % to control	0 % to control	statistically significantly improved performance of normal rats	40 % to control	62.5 ± 7.7	–	–	–	–
CC1(C)C=Cc2c(nc3ccccc3c2NCc2ccccc2)C1 [VIIp]	–	–	–	33 % to control	21 % to control	statistically significantly improved performance of normal rats	45 % to control	–	75 ± 3.8	–	–	–
CC1(C)C=Cc2c(nc3ccccc3c2NCc2ccccc2)C1 [VIIq]	–	–	–	20 % to control	30 % to control	statistically significantly improved performance of normal rats	45 % to control	73.3 ± 4.4	–	–	–	–
CC1(C)C=Cc2c(nc3ccccc3c2NCc2ccccc2)C1 [VIIr]	–	–	–	0 % to control	0 % to control	statistically significantly improved performance of normal rats	45 % to control	69.5 ± 5.6	–	–	–	–
CC1(C)C=Cc2c(nc3ccccc3c2NCc2ccccc2)C1 [VIIu]	–	–	–	15 % to control	12 % to control	–	0 % to control	83.8 ± 5.6	–	–	–	–
CCCCNc1c2c(nc3ccccc13)CC(C)(C)CC2=O [Vs]	–	–	–	0 % to control	0 % to control	–	15 % to control	165.8 ± 14.8	–	–	–	–
CCCCNc1c2c(nc3ccccc13)CC(C)(C)CC2=O [Vt]	–	–	–	0 % to control	0 % to control	–	0 % to control	210.0 ± 9.8	–	–	–	–
CCCCNc1c2c(nc3ccccc13)CC(C)(C)CC2=O [Vu]	–	–	–	20 % to control	0 % to control	statistically significantly improved performance of normal rats	30 % to control	210.0 ± 5.8	–	–	–	–
CCCCNc1c2c(nc3ccccc13)CC(C)(C)CC2=O [Vv]	–	–	–	26 % to control	15 % to control	–	25 % to control	433.3 ± 7.8	–	–	–	–
CCCCNc1c2c(nc3ccccc13)CC(C)(C)CC2=O [Vw]	–	–	–	10 % to control	10 % to control	–	10 % to control	125.0 ± 11.8	–	–	–	–
CCCCNc1c2c(nc3ccccc13)CC(C)(C)CC2=O [Vx]	–	–	–	–	–	–	25 % to control	121.7 ± 15.5	–	–	–	–
CCCCNc1c2c(nc3ccccc13)CC(C)(C)CC2=O [Vy]	–	–	–	0 % to control	0 % to control	–	0 % to control	210.0 ± 14.8	–	–	–	–
CCCCNc1c2c(nc3ccccc13)CC(C)(C)CC2=O [Vz]	–	–	–	0 % to control	0 % to control	–	20 % to control	200.0 ± 21.9	–	–	–	–
CC(C)(Sc1cc(C(C)(C)C)c(O)c(C(C)(C)C)c1)Sc1cc(C(C)(C)C)c(O)c(C(C)(C)C)c1 [probucol, reference compound]	–	–	–	–	–	–	–	–	–	1.10	0.84	0.69
